Values quoted from earlier work in paper PMC8451327, “Paradoxical Augmentation of Experimental Spondyloarthritis by RORC Inhibition in HLA-B27 Transgenic Rats” (Frontiers in Immunology, 2021).

Tests used:
intestinal inflammation = test system: intestinal inflammation; parameters: method as in PMID 30972425
normal mice = test system: normal mice; parameters: method as in PMID 30972425
[1] = test system: psoriatic arthritis (PsA)
[2] = test system: ankylosing spondylitis (AS)

## COc1ccc2c(n1)CCN(C(=O)C1CC(CC(=O)O)C1)[C@H]2C(=O)Nc1cc(F)c2c(c1)CCC2(C)C (some centres unmarked) [TAK-828F]
Intestinal inflammation
  Gene expression of IL17A, IL17F and IL-22: suppressed/decreased
  Intestinal inflammation: suppressed
  Th17 and Th17/Th1 cell population in mesenteric lymph nodes: significantly reduced
Normal mice
  Numbers of Th17 cells and ILC3s in the lamina propria: did reduce

## Secukinumab: anti-IL-17A mAb
[1]
  Signs and symptoms of psoriatic arthritis: reduced
[2]
  Signs and symptoms of ankylosing spondylitis: reduced

## ixekizumab: interleukin-17A specific monoclonal antibody
[1]
  Clinical efficacy in PsA: proven clinical efficacy
[2]
  Clinical efficacy in AS: proven clinical efficacy
